Test: Pharmacokinetic and distribution experiment (radioactivity in blood and excised organs after tail vein injection)
Type: in vivo
Details: ddy mice; for Adrenal gland/Blood ratio / Radioactivity Distribution, Blood / Radioactivity Distribution, Femur / Radioactivity Distribution, Heart / Radioactivity Distribution, Large intestine / Radioactivity Distribution, Lung / Radioactivity Distribution, Small intestine / Radioactivity Distribution, Spleen / Radioactivity Distribution, Stomach / Adrenal gland/Kidney ratio / Radioactivity Distribution, Adrenal gland / Radioactivity Distribution, Kidney / Radioactivity Distribution, Liver / Radioactivity Distribution, Pancreas / Adrenal gland/Liver ratio: tail vein injection; for Adrenal gland/Blood ratio / Radioactivity Distribution, Blood / Radioactivity Distribution, Femur / Radioactivity Distribution, Heart / Radioactivity Distribution, Large intestine / Radioactivity Distribution, Lung / Radioactivity Distribution, Small intestine / Radioactivity Distribution, Spleen / Radioactivity Distribution, Stomach: 14.8 kBq (4 μCi); for Adrenal gland/Kidney ratio / Radioactivity Distribution, Adrenal gland / Radioactivity Distribution, Kidney / Radioactivity Distribution, Liver / Radioactivity Distribution, Pancreas: 14.8 kBq
Method: (§1) The HPLC fraction of [^125I]PAY15 obtained in Example 3 was concentrated and then diluted with saline. The resulting solution was used in administration. 100 μL of the solution (18.5 kBq (0.5 μCi)) was injected to the tail vein of each of five ddy mice (6 weeks old). Five minutes later, each mouse was decapitated, and blood was collected. Then, organs (adrenal gland, pancreas, heart, lung, stomach, small intestine, large intestine, liver, spleen, kidney, and thyroid gland) were excised. After measurement of their weights, the radioactivities of blood and each excised organ were measured. Also, the point in time when each mouse was decapitated was changed to 5, 15, 30, 60, and 120 minutes later to perform similar operation.
The HPLC fraction of [^125I]PAY21 obtained in Example 6 was concentrated and then diluted with saline. The resulting solution was used in administration to perform the same operation as in Evaluation 1.
as §1, with “[^18F]PAY27 obtained” for “The HPLC fraction of [^125I]PAY15 obtained”, “Example 10” for “Example 3”, “was” for “was concentrated and then”, “solution (14.8” for “solution (18.5”, “kBq (4” for “kBq (0.5”, “and thigh bone)” for “and thyroid gland)”
as §1, with “[^18F]PAY54 obtained” for “The HPLC fraction of [^125I]PAY15 obtained”, “Example 13” for “Example 3”, “was” for “was concentrated and then”, “solution (14.8” for “solution (18.5”, “kBq (4” for “kBq (0.5”, “and thigh bone)” for “and thyroid gland)”

O=C1CCc2cc(-c3cncc(OCC[18F])c3)cc3c2N1CCC3 [[^18F]PAY27, 9-(5-(2-[^18F]fluoroethyloxy)pyridin-3-yl)-1,2,6,7-tetrahydro-5H-pyrido[3,2,1-ij]quinolin-3-one]
radioactivity accumulation in the adrenal gland compared with blood and periadrenal tissues (at 60 minutes after administration): high radioactivity accumulation | Adrenal gland/Blood ratio (5 min): 1.11 ± 0.17 | Radioactivity Distribution, Blood (5 min): 4.0 ± 0.3 % dose/g | Radioactivity Distribution, Femur (5 min): 1.8 ± 0.1 % dose/g | Radioactivity Distribution, Heart (5 min): 3.9 ± 0.3 % dose/g | Radioactivity Distribution, Large intestine (5 min): 2.5 ± 0.2 % dose/g | Radioactivity Distribution, Lung (5 min): 3.7 ± 0.4 % dose/g | Radioactivity Distribution, Small intestine (5 min): 5.0 ± 0.4 % dose/g | Radioactivity Distribution, Spleen (5 min): 3.0 ± 0.2 % dose/g | Radioactivity Distribution, Stomach (5 min): 5.1 ± 0.4 % dose/g | Adrenal gland/Blood ratio (15 min): 0.83 ± 0.12 | Radioactivity Distribution, Blood (15 min): 4.1 ± 0.2 % dose/g | Radioactivity Distribution, Femur (15 min): 2.3 ± 0.1 % dose/g | Radioactivity Distribution, Heart (15 min): 3.6 ± 0.2 % dose/g | Radioactivity Distribution, Large intestine (15 min): 5.0 ± 0.4 % dose/g | Radioactivity Distribution, Lung (15 min): 3.6 ± 0.1 % dose/g | Radioactivity Distribution, Small intestine (15 min): 6.7 ± 0.6 % dose/g | Radioactivity Distribution, Spleen (15 min): 2.8 ± 0.2 % dose/g | Radioactivity Distribution, Stomach (15 min): 5.6 ± 1.1 % dose/g | Adrenal gland/Blood ratio (30 min): 0.88 ± 0.18 | Radioactivity Distribution, Blood (30 min): 3.6 ± 0.3 % dose/g | Radioactivity Distribution, Femur (30 min): 2.4 ± 0.2 % dose/g | Radioactivity Distribution, Heart (30 min): 3.2 ± 0.4 % dose/g | Radioactivity Distribution, Large intestine (30 min): 6.1 ± 0.4 % dose/g | Radioactivity Distribution, Lung (30 min): 2.7 ± 0.2 % dose/g | Radioactivity Distribution, Small intestine (30 min): 5.9 ± 0.5 % dose/g | Radioactivity Distribution, Spleen (30 min): 2.3 ± 0.1 % dose/g | Radioactivity Distribution, Stomach (30 min): 5.5 ± 0.4 % dose/g | Adrenal gland/Blood ratio (60 min): 1.43 ± 0.47 | Radioactivity Distribution, Blood (60 min): 3.3 ± 0.1 % dose/g | Radioactivity Distribution, Femur (60 min): 3.9 ± 0.2 % dose/g | Radioactivity Distribution, Heart (60 min): 3.0 ± 0.2 % dose/g | Radioactivity Distribution, Large intestine (60 min): 7.0 ± 0.6 % dose/g | Radioactivity Distribution, Lung (60 min): 2.6 ± 0.2 % dose/g | Radioactivity Distribution, Small intestine (60 min): 6.0 ± 0.7 % dose/g | Radioactivity Distribution, Spleen (60 min): 2.2 ± 0.2 % dose/g | Radioactivity Distribution, Stomach (60 min): 4.1 ± 0.9 % dose/g | Adrenal gland/Blood ratio (120 min): 0.58 ± 0.44 | Radioactivity Distribution, Blood (120 min): 2.8 ± 0.5 % dose/g | Radioactivity Distribution, Femur (120 min): 6.4 ± 0.4 % dose/g | Radioactivity Distribution, Heart (120 min): 2.4 ± 0.3 % dose/g | Radioactivity Distribution, Large intestine (120 min): 9.1 ± 1.4 % dose/g | Radioactivity Distribution, Lung (120 min): 2.1 ± 0.1 % dose/g | Radioactivity Distribution, Small intestine (120 min): 3.1 ± 0.6 % dose/g | Radioactivity Distribution, Spleen (120 min): 1.8 ± 0.2 % dose/g | Radioactivity Distribution, Stomach (120 min): 3.9 ± 0.6 % dose/g | Adrenal gland/Kidney ratio (5 min): 1.00 ± 0.19 | Radioactivity Distribution, Adrenal gland (5 min): 4.5 ± 0.8 % dose/g | Radioactivity Distribution, Kidney (5 min): 4.5 ± 0.3 % dose/g | Radioactivity Distribution, Liver (5 min): 6.5 ± 1.0 % dose/g | Radioactivity Distribution, Pancreas (5 min): 3.0 ± 0.4 % dose/g | Adrenal gland/Kidney ratio (15 min): 0.99 ± 0.23 | Radioactivity Distribution, Adrenal gland (15 min): 3.4 ± 0.5 % dose/g | Radioactivity Distribution, Kidney (15 min): 3.5 ± 0.3 % dose/g | Radioactivity Distribution, Liver (15 min): 5.1 ± 0.3 % dose/g | Radioactivity Distribution, Pancreas (15 min): 2.5 ± 0.2 % dose/g | Adrenal gland/Kidney ratio (30 min): 1.40 ± 0.28 | Radioactivity Distribution, Adrenal gland (30 min): 3.2 ± 0.6 % dose/g | Radioactivity Distribution, Kidney (30 min): 2.3 ± 0.2 % dose/g | Radioactivity Distribution, Liver (30 min): 4.1 ± 0.5 % dose/g | Radioactivity Distribution, Pancreas (30 min): 2.0 ± 0.1 % dose/g | Adrenal gland/Kidney ratio (60 min): 1.88 ± 0.55 | Radioactivity Distribution, Adrenal gland (60 min): 4.7 ± 1.7 % dose/g | Radioactivity Distribution, Kidney (60 min): 2.5 ± 0.4 % dose/g | Radioactivity Distribution, Liver (60 min): 3.7 ± 0.3 % dose/g | Radioactivity Distribution, Pancreas (60 min): 2.0 ± 0.1 % dose/g | Adrenal gland/Kidney ratio (120 min): 0.99 ± 0.77 | Radioactivity Distribution, Adrenal gland (120 min): 2.2 ± 1.2 % dose/g | Radioactivity Distribution, Kidney (120 min): 1.7 ± 0.1 % dose/g | Radioactivity Distribution, Liver (120 min): 2.9 ± 0.5 % dose/g | Radioactivity Distribution, Pancreas (120 min): 1.5 ± 0.2 % dose/g | Adrenal gland/Liver ratio (5 min): 0.70 ± 0.16 | Adrenal gland/Liver ratio (15 min): 0.67 ± 0.06 | Adrenal gland/Liver ratio (30 min): 0.79 ± 0.20 | Adrenal gland/Liver ratio (60 min): 1.26 ± 0.37 | Adrenal gland/Liver ratio (120 min): 0.58 ± 0.46

— US20140187784A1, “RADIOACTIVE QUINOLINONE DERIVATIVE AND PHARMACEUTICAL DRUG COMPRISING THE SAME” (Nihon Medi-Physics Co., Ltd., priority 2012, published 2014)
